Legend:
Bacillus subtilis PY79 = experiment: MIC, overnight culture/serial dilution assay; assay type: cell-based; conditions: overnight serial dilution culture, purified compound
[1] = test system: B. subtilis BSZ-9 (L11 knockout); conditions: colonies of M1152 + pSETGE1 overlaid with B. subtilis BSZ-9, resistant to 26-membered thiopeptides

In the case of GE37468, the “MIC B. subtilis” value (Bacillus subtilis PY79) is reported as 0.016 µg/mL and the “resistance of overlaid strain” value [1] is reported as “Neither BSZ-9 nor B. cereus ATCC 15479 exhibited resistance”.

Source: article PMC3530156 (Chemistry & biology, 2012)
